In patent publication US20100227853A1, “INHIBITORS OF CYCLIC AMP PHOSPHODIESTERASES” (Trustees of Boston College, priority 2008, published 2010):

Columns and labels:
PDE7A = PDE7A (Homo sapiens, UniProt Q13946); assay: 5FOA growth assay in fission yeast strain expressing PDE7A; assay type: cell-based; design: targets used in the assays are full-length proteins (as opposed to simply the catalytic domain); expressed in transfected cells; host or cells: Schizosaccharomyces pombe, PDE gene integrated in place of cgs2; conditions: for Composite Z score, PDE7A: high throughput 5FOA growth screen
Chain of PDE7A (Q13946 whole entry, the tested form may be a part): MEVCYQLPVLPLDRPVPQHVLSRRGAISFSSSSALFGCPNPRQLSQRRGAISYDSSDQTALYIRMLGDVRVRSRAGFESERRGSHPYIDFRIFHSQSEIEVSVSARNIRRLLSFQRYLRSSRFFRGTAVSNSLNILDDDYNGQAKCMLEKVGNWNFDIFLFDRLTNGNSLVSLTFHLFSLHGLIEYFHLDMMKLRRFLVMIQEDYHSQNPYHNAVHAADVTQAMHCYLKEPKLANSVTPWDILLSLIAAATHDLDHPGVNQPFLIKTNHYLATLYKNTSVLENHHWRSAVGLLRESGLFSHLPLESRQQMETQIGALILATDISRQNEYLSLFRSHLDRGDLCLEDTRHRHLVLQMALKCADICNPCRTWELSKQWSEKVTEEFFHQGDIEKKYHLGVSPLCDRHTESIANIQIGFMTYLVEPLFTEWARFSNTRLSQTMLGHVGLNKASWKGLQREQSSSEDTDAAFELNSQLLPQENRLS
How it was run: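 Fission yeast carrying an fbp1-ura4 reporter were pregrown to exponential phase at 30 °C in EMM with 0–2.5 mM cAMP (or 0.5/1.0 mM cGMP), then moved into 5FOA medium with 100 nl pinned compound (10 mM stocks). Growth was read as OD600 after 48 h at 30 °C and scored as composite Z scores.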

PDE4A5 = target: T1, PDE4A5 (Rattus norvegicus, UniProt P54748); assay: 5FOA growth assay in fission yeast strain expressing PDE4A5; assay type: cell-based; conditions: for Composite Z score, PDE4A5: high throughput 5FOA growth screen
T1 construct: targets used in the assays are full-length proteins (as opposed to simply the catalytic domain); expressed in transfected cells; host or cells: Schizosaccharomyces pombe, PDE gene integrated in place of cgs2
T1 sequence (P54748 1-844): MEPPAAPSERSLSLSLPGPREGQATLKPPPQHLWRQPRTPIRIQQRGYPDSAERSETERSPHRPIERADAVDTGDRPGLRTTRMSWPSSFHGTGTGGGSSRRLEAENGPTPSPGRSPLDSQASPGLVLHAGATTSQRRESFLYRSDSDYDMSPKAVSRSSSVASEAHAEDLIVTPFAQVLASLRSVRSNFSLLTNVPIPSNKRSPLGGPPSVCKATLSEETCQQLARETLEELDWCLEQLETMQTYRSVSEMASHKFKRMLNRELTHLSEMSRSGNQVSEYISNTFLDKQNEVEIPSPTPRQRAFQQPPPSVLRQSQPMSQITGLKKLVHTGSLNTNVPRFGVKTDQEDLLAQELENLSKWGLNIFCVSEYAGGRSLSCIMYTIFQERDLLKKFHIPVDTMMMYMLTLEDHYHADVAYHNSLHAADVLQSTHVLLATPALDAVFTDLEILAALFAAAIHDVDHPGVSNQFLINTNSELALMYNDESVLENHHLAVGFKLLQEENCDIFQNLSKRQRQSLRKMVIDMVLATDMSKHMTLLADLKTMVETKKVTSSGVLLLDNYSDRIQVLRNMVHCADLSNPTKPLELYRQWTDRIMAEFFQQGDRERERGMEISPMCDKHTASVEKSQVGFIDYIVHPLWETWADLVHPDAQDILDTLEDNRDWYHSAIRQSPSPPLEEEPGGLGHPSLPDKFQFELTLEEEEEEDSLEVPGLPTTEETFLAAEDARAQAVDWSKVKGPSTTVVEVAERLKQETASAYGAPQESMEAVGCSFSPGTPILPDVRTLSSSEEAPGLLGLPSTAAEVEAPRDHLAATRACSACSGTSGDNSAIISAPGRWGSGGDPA
Protocol: High throughput drug screens were carried out at the Broad Institute's Chemical Biology Program screening facility (Broad Institute, Cambridge, Mass.). Depending upon the strain, cultures were pregrown to exponential phase in EMM complete medium containing from 0.5 to 2.5 mM cAMP to repress fbp1-ura4 transcription. Cells were collected by centrifugation, resuspended in 5FOA medium, and 25 μl were transferred to 384-well microtiter dishes (untreated, with flat clear bottoms) that had been pre-filled with 25 μl 5FOA medium and pre-pinned with 100 nl of compounds (stock solutions were generally 10 mM) from a subset of the Prestwick Bioactive and the Microsource Spectrum compound libraries. Starting cell concentrations ranged from 0.5×10^5 to 4×10^5 cells/ml depending on the screening strain. […] Other positive control dishes contained 5 mM cAMP in the 5FOA medium. Cultures were grown for 48 hours at 30° C., sealed in an airtight container with moist paper towels to prevent evaporation. Optical densities (OD600) of cultures were measured using a microplate reader. Bioinformatic analysis of the results to determine composite Z scores was performed as previously described^30, 31.
Cells were pregrown in EMM medium [MP Biomedicals (Solon, Ohio), 3% glucose, filter-sterilized to avoid carmelization, which would introduce variability into the optical density of the medium] containing from 0 mM to 2.5 mM cAMP (or either 0.5 mM or 1.0 mM cGMP). This was to repress expression of the fbp1-ura4 reporter prior to exposure of cells to 5FOA medium. Cells were grown at 30° C. to exponential phase (approximately 10^7 cells/ml). Cells were collected by centrifugation and resuspended in 5FOA medium, and 25 μl were transferred to 384-well microtiter dishes (untreated, with flat clear bottoms) that had been pre-filled with 25 μl 5FOA medium and pre-pinned with 100 nl of compounds (stock solutions were generally 10 mM). Starting cell concentrations ranged from 0.5×10^5 to 4×10^5 cells/ml depending on the screening strain. […] Other positive control dishes contained 5 mM cAMP in the 5FOA medium for PDEs that lack appropriate control compounds. Cultures were grown for 48 hours at 30° C., sealed in an airtight container with moist paper towels to prevent evaporation. Optical densities (OD600) of cultures were measured using a microplate reader. Bioinformatic analysis of the results to determine composite Z scores was performed as previously described (1, 3).

| Compound | Composite Z score, PDE7A (PDE7A) | Composite Z score, PDE4A5 (PDE4A5) | further results |
| --- | --- | --- | --- |
| CCN(CC)c1ncnc2sc(C(=O)N(C)C3CCCCC3)c(C)c12 [Compound 2040J12] | −0.165 | −0.227 |  |
| c1ccc(CCn2c3ccccc3c3nc4ccccc4nc32)cc1 [2019, G03] |  |  | 1 Assay (20 uM) 7A (PDE7A; PDE 7A): 4.47 ND ND ND ND; 1 Assay (20 uM) 4A5 (PDE4A5; PDE 4A5): 49.61 ND ND ND ND |
| COC(=O)C1=C(C)N(C2CCCCC2)C(=O)/C1=C\c1cccs1 [Compound 22] |  |  | 2 Assay (2 uM), 7A (PDE7A): 57.22; 1 Assay (20 uM) 7A (PDE7A): 132.82; 2 Assay (2 uM), 4A5 (PDE4A5): 13.66; 1 Assay (20 uM) 4A5 (PDE4A5): −0.06 |
| CC(C)Cn1c2ccc(Br)cc2c2nc3ccccc3nc21 [2015, L04] |  |  | 1 Assay (20 uM) 7A (PDE7A; PDE 7A): −0.79 ND ND ND ND; 1 Assay (20 uM) 4A5 (PDE4A5; PDE 4A5): 57.60 ND ND ND ND |
| c1nc(NCCCN2CCOCC2)c2c3c(sc2n1)CCCC3 [Compound 2051N22] | −0.445 | −4.733 |  |
| CCN(CC)c1nc(C)nc2sc(C(=O)N3CCCCCC3)c(C)c12 [Compound 2040N12] | −1.037 | −0.705 |  |
| Cc1cc(C)c(C)c(S(=O)(=O)N2CCN(c3ncnc4sc5c(c34)CCCC5)CC2)c1C [Compound 2012L13] | −0.684 | −0.334 |  |
| CCN(CC)c1nc(C)nc2sc(C(=O)Nc3cc(Cl)ccc3OC)c(C)c12 [Compound 2040L12] | 0.6002 | 0.9752 |  |
| c1csc(CCNc2ncnc3sc4c(c23)CCC4)c1 [Compound 2005M12] | −0.398 | −0.574 |  |
| O=C(/C=C/c1ccccc1)Nc1ncnc2sc3c(c12)CCC3 [Compound 2008K11] | 0.9074 | −4.329 |  |
| CCNc1nc(SCC(=O)NC(=O)NCc2ccccc2)nc2sc3c(c12)CCN(C)C3 [Compound 2054N05] | 0.1836 | 1.0728 |  |
| CC1CC(=O)N(c2ncnc3sc4c(c23)CCCC4)N1 (stereo not drawn) [2054 E16] | −0.737 | 0.5516 |  |
| COc1ccc(CCNc2ncnc3sc4c(c23)CCCC4)cc1 [Compound 2012B19] | 26.421 | 20.422 |  |
| CCOC(=O)c1sc2nc(Cc3ccccc3)nc(NCCC3CCCCC3)c2c1C [Compound 2040F07] | 1.5898 | 2.5342 |  |
| CCC(C)NC(=O)c1sc2nc(C)nc(N(C)c3ccc(C(C)C)cc3)c2c1C (stereo not drawn) [Compound 2041K04] | −1.377 | 10.539 |  |
| Cc1c(C(=O)N(C)Cc2ccccc2)sc2ncnc(N3CCN(c4ccccc4)CC3)c12 [Compound 2041G21] | −1.371 | 0.7964 |  |
| O=C(O)CCNc1ncnc2sc3c(c12)CCCC3 [Compound 2012O16] | 1.8846 | 0.289 |  |
| Cc1ccc2c(c1)c1nc3ccccc3nc1n2C(C)C [Compound 41] |  |  | 1 Assay (20 uM) 7A (PDE7A; PDE 7A): 0.31; 1 Assay (20 uM) 4A5 (PDE4A5; PDE 4A5): 84.08 |
| CNc1nc(=S)[nH]c2sc3c(c12)CCCC3 [2054 E08] | −0.995 | −0.378 |  |
| C=CCn1c2ccc(Br)cc2c2nc3ccccc3nc21 [2017, C18] |  |  | 1 Assay (20 uM) 7A (PDE7A; PDE 7A): −1.58 ND ND ND ND; 1 Assay (20 uM) 4A5 (PDE4A5; PDE 4A5): 69.70 ND ND ND ND |

| Compound | Composite Z score, PDE7A (PDE7A) | Composite Z score, PDE4A5 (PDE4A5) | further results |
| --- | --- | --- | --- |
| COc1cc(OC)c(NC(=O)c2sc3ncnc(N4CCCCC4C)c3c2C)cc1Cl (stereo not drawn) [Compound 2040J10] | 0.6002 | 0.4891 |  |
| COc1cccc(NC(=O)c2sc3ncnc(N4CCc5ccccc5C4)c3c2C)c1 [Compound 2041K21] | 0.4852 | 33.878 |  |
| Cc1nc(N2CCC(C)CC2)c2c(C)c(C(=O)N3CCN(c4ccc(F)cc4)CC3)sc2n1 [Compound 2040N10] | 0.7021 | 1.3723 |  |
| Cc1c(C(=O)NCCC2CCCCC2)sc2ncnc(N3CCCCC3C)c12 (stereo not drawn) [Compound 2040H10] | 1.3549 | 3.411 |  |
| Cc1c(C(=O)NCCC(C)C)sc2ncnc(N3CCOCC3)c12 [Compound 2040F13] | −0.598 | −0.722 |  |
| COC(=O)C1=C(C)N(c2ccccc2Cl)C(=O)/C1=C\c1cccs1 [Compound 27] |  |  | 2 Assay (2 uM), 7A (PDE7A): 5.07; 1 Assay (20 uM) 7A (PDE7A): 2.34; 2 Assay (2 uM), 4A5 (PDE4A5): 12.63; 1 Assay (20 uM) 4A5 (PDE4A5): 65.67 |
| Cc1nc(NCCc2ccccc2)c2c3c(sc2n1)CCCC3 [Compound 2008G09] | 0.03 | −4.881 |  |
| CC(C)CC(Nc1ncnc2sc3c(c12)CCC3)C(=O)O (stereo not drawn) [Compound 2012H20] | −0.757 | −0.102 |  |
| OCCNc1ncnc2sc3c(c12)CCCC3 [Compound 2051H22] | −0.346 | 2.0846 |  |
| CCOC(=O)c1sc2nc(C)nc(N3CCC(C)CC3)c2c1C [Compound 2007D06] | −0.759 | −10.3 |  |
| COc1ccccc1CNC(=O)c1sc2ncnc(N3CCN(c4ccccc4F)CC3)c2c1C [2041 E21] | 0.5923 | 2.4446 |  |
| Cc1c(C(=O)Nc2ccc(F)cc2F)sc2ncnc(N3CCC(C)CC3)c12 [BC58] | 24.881 | 154.72 |  |
| Cc1nc(N2CCCCC2)c2c(C)c(C(=O)Nc3cccc(C(F)(F)F)c3)sc2n1 [Compound 2040F10] | −1.481 | 1.7466 |  |
| COc1ccc(NC(=O)c2sc3nc(C)nc(N(C)c4ccc(C(C)C)cc4)c3c2C)c(OC)c1 [Compound 2041I04] | 0.7201 | 1.1627 |  |
| COc1ccc2c(c1)[C@@]1(C)CCC[C@](C)(CO)C1CC2 (stereo partly drawn) [Compound 2067M03] |  |  | 2 Assay (2 uM), 7A (PDE7A; PDE 7A): 8.65; 1 Assay (20 uM) 7A (PDE7A; PDE 7A): 104.31; 2 Assay (2 uM), 4A5 (PDE4A5; PDE 4A5): 8.43; 1 Assay (20 uM) 4A5 (PDE4A5; PDE 4A5): 16.94 |
| Cc1sc2ncnc(Nc3ccccc3)c2c1C [BC64] | 55.035 |  | EC50 (PDE7A; OD600 0.6, read-out: ED50 for 5FOA growth assays, PDE7A): > 200 µM |
| CCc1ccc2c(c1)c1nc3ccccc3nc1n2CC [2015, P06] |  |  | 1 Assay (20 uM) 7A (PDE7A; PDE 7A): 1.07 ND ND ND ND; 1 Assay (20 uM) 4A5 (PDE4A5; PDE 4A5): 51.82 ND ND ND ND |
| CCNc1nc(SCC(=O)OCC)nc2sc3c(c12)CCC(C)C3 (stereo not drawn) [Compound 2053H16] | 0.7038 | −0.22 |  |
| N#Cc1sc2sc(C#N)c(-c3ccco3)c2c1N [Compound 30] |  |  | 2 Assay (2 uM), 4A5 (PDE4A5): 2.79; 1 Assay (20 uM) 4A5 (PDE4A5): 2.14 |
